Source: US7855232B2, “Organoselenium compound for cancer chemoprevention” (LKT Laboratories, Inc., priority 2001, dated 2010)

Test system: aberrant crypts (AC)
Assay: Inhibition of DMH-induced aberrant crypt (AC) formation in colon
Assay type: in vivo, Female CF1 mice
Conditions: with DMH
From the text: Precancerous lesions called aberrant crypts (AC) are used as a marker for colon carcinogenesis. Mice and rats, when exposed to colon-specific carcinogen, develop preneoplastic changes in colon crypts which leads to malignancy through dysplasia-carcinoma sequence. […] McLellan et al., Cancer Res. 48:6183-6186 (1988); McLellan et al., Cancer Res. 48:2311-2315 (1988).
The effect of colon-specific carcinogenesis is typically seen in the induction of AC formation in less than two weeks. AC formation is dose dependent and can be quantitated without elaborate instrumentation. In view of the short time-frame required to get quantifiable results, this bio-assay is a useful prescreening tool for the evaluation of chemopreventative efficacy of compounds that are effective against colon cancer. The protocol for aberrant crypts is shown below:
Female CF1 mice, 3 weeks of age, were purchased from Harlan Sprague-Dawley, Indianapolis, 1N. They were housed, 5 mice per cage, in temperature and humidity-controlled animal quarters with 12 hours light/dark cycle and fed AIN 76A semipurified diet until the ent of the experiment. Water was given ad libitim. The animals were separated into experimental and control groups. The test compounds 0.03-0.04 mmol/kg body weight dissolved in 0.3 mL corn oil, were given by gavage one per day for 8 days. One hour after the inhibitors administration on the 4th and 8th days, 0.4 mg of DMH in 0.2 mL of 0.001 M EDTA, adjusted to pH 6.5 with sodium bicarbonate, was given by gavage. Starting on the 9th day, the inhibitors were given once every other day for an additional 3 weeks. This regimen of inhibitor administration ensures the coverage both the initiation and post initiation periods of carcinogen exposure.
At the end of the 3 week period, the animals were sacrificed and the colons removed. The starting and terminating weights of the animals were recorded. The procedures for the determination of aberrant crypts were those reported by Bird (Cancer Letters 37:147-151 (1987)). The mouse colon including the caecum was removed, rinsed with PBS, and opened longitudinally. The colon contents was removed by washing with PBS. The colon was spread mucosal side up on a piece of filter paper and fixed in buffered formalin overnight. It was then stained with 0.2% methylene blue in PBS for 60 min. The AC foci was read under light microscope. The AC are topographically distinguished by their increased size, increased pericryptal zone, and thicker and deeply stained epithelial lining compared to normal crypts. The number of foci and AC in the colorectal and caecal parts of the colon were recorded separately. The significance of the data was determined by the analysis of variance method. The significance of the incidence of aberrant crypts bearing animals was analyzed by the X^2 test. The aberrant crypts were examined histologically to verify the dysplastic nature of the changes in animals treated with carcinogens and those treated with carcinogens and inhibitors.

N#C[Se]Cc1ccc(C[Se]C#N)s1 [(2) TDMSC, thienyl-2,5-di-methylene selenocyanate]
ACF/Colon (low dose 0.03 mmol/kg body weight, gavage, DMH alone 1.13): 0.50 | AC/Foci (low dose 0.03 mmol/kg body weight, gavage, DMH alone 1.28): 1.00 | AC/Colon (low dose 0.03 mmol/kg body weight, gavage, DMH alone 1.44): 0.50 | Total ACF (low dose 0.03 mmol/kg body weight, gavage, DMH alone 18): 4 | Total AC (low dose 0.03 mmol/kg body weight, gavage, DMH alone 23): 4 | % animals (low dose 0.03 mmol/kg body weight, gavage, DMH alone 43.7): 24.0% | protection (inhibition of aberrant crypt formation) (low dose): more than 50%
